In patent US12691101B2, “Compound and method for preventing or treating of respiratory diseases comprising the same as an active ingredient” (YONSEI UNIVERSITY, UNIVERSITY - INDUSTRY FOUNDATION (UIF), priority 2019, dated 2026):

System: OVA-sensitized and challenged mice
Assay: OVA-induced allergic asthma mouse model
Assay type: in vivo
Conditions: for OVA-induced airway sensitivity / airway resistance: pretreatment, F56 10 mg/kg i.p. 12 hours before OVA challenge, methacholine
Experimental: (A) Protocol of induction of allergic airway inflammation solution after allergen antigen challenge in a wild-type mouse and time course. F56 (10 mg/kg three times/day) was applied after tertiary OVA challenge. (B) Airway reactivity measured by whole body plethysmography in an OVA-induced asthma model. Penh was measured in response to an increased dose of methacholine (mean±S.E., n=4). (C) Representative PAS staining of airway tissue. Size bar, 100 μm. (D) Summary of PAS positive cells (mean±S.E., n=4). * P<0.05.
Experiments were performed using 8-week-old BALB/c mice. The experimental protocol was approved by the Animal Ethics Committee of Yonsei University. Mice were housed and maintained in an animal facility under standard laboratory conditions [12/12 hours light/dark cycle, controlled temperature (21±2° C.) and humidity (55±5%) and access to any food and water]. All the experiments were performed according to the guidelines of Yonsei University Animal Research Committee. Mice were divided to 3 groups, vehicle group (vehicle-treated PBS-sensitized and challenged mice), OVA group (vehicle-treated OVA-sensitized and challenged mice) and OVA+F56 group (F56-treated OVA-sensitized and challenged mice). Age and sex-matched 8-week-old mice were sensitized by i.p. injection of OVA (Sigma-Aldrich) on Days 0 and 14. The sensitization emulsion was composed of 50 μg OVA and 2 mg aluminum potassium sulfate in 200 μL saline solution. On Days 21, 22 and 23, sensitized mice were lightly anesthetized by isoflurane inhalation and challenged with 100 μg OVA in 30 μL saline solution administered intranasally. The control mice were treated in the same manner as PBS. F56 (10 mg/kg) was administered by i.p injection 12 hours before i.n. OVA challenge, respectively.
The airway response for methacol (MCh) 24 hours after the last OVA exposure was measured using FlexiVent system (Scireq, Montreal, QC, Canada). Mice were anesthetized by intraperitoneal injection of the mixture of Zoletil (30 mg/kg; Virbac Laboratories, Carros, France) and Rompun (10 mg/kg; Bayer, Leverkusen, Germany), and then tracheostomy was performed to connect to FlexiVent. The base line airway resistance was measured after spraying saline solution for 10 seconds using Aeroneb ultrasonic nebulizer (SCIREQ). After measuring the base line, the mice were exposed to nebulized methacholine at an increased concentration (0, 1.56, 3.13, 6.25, 12.5 and 25 mg/mL). In addition, using whole body plethysmography (Buxco, Miami, FL, USA), the bronchial airway responsibility was measured. As a major index of the airway responsibility, enhanced pause (Penh) was used. Under the base line condition, Penh was measured for 2 minutes. Then, the mice were exposed to inhalation of PBS or MCh (25 mg/mL) for 2 minutes. The Penh result was expressed as an absolute value.
After evaluation of the airway responsiveness, BAL was performed. The cells were pelleted by centrifugation and resuspended in PBS to obtain the number of cells. Cytospin was prepared with a cell centrifuge (Shandon Cytospin 4 cell centrifuge; Thermo Scientific, MA, USA, USA) and stained with Diff-Quik Stain Set (Dade Behring, USA, DE, USA) to evaluate inflammation.
For evaluation of airway inflammation, left lung was fixed in 4% paraformaldehyde overnight and embedded in paraffin. A histological slide was prepared from 5-μm section, and stained with hematoxylin and eosin (H&E). The inflammation score showing the severity of bronchial inflammation was evaluated by 3 blind observers using a method reported conventionally. To evaluate goblet cell hyperplasia, the section was stained with periodic acid-Schiff (PAS) using PAS staining kit (Sigma-Aldrich), according to the manufacturer's protocol. The nasal cavity mucous membrane and HNE cells collected on the transwell were softly washed with PBS and fixed with 4% paraformaldehyde. […]

[1] = established model of allergic asthma, 10 mg/kg three times/day after tertiary OVA challenge

## CC(C)(C)c1ccc(C2=NC(=Cc3cccs3)C(=O)O2)cc1 [F56, 2-(4-(tert-butyl)phenyl)-4-(thiophen-2-ylmethylene)oxazol-5(4H)-one]
OVA-challenged mice
  serum level of OVA-specific IgG: not changed
OVA-challenged mice, 10 mg/kg i.p.
  goblet cells, inflammation infiltration and epithelial thickness in central airway (histology): weekended
OVA-challenged mice, versus non-treated group
  average inflammation score: significantly lower
OVA-sensitized mice, 10 mg/kg i.p.
  number of eosinophils and neutrophils in BALF: reduced
[1]
  OVA-induced airway sensitivity: significantly reduced
  PAS positive cells in the airway epithelium: significantly reduced
  OVA-induced airway sensitivity / airway resistance: significantly weakened

## CC(C)(C)c1ccc(C2=NC(=Cc3ccc[nH]3)C(=O)O2)cc1 [F10, 4-((1H-pyrrol-2-yl)methylene)-2-(4-(tert-butyl)phenyl)oxazol-5 (4H)-one]
  OVA-induced airway sensitivity / airway resistance: reduced the airway resistance
